We go through 19 molecules from PubChem BioAssay AID256 (DTP/NCI, 2004).

Values joined by “and” are separate entries in the source; they are usually repeats but may differ in a detail not shown here. Identical values can stand only once. Inconclusive results and toxic doses are left out.

The assay concerns CD2F1 mice, L1210 leukemia ip, survival T/C. The assay is described as follows: NCI In Vivo Anticancer Drug Screen. Data for tumor model L1210 Leukemia (intraperitoneal) in CD2F1 (CDF1) mice. The settings on record: higher = longer survival. Put shortly:
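Vehicle-treated tumor-bearing mice served as controls (C) for compound-treated mice (T). Reported figure is T divided by C.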

Setting [1] is: endpoint: mean survival time, dose: 100.0 mg/kg/injection, schedule: Q01DX009 (ip), vehicle: saline with Tween-80.
Where [2] appears, read: endpoint: mean survival time, dose: 100.0 mg/kg/injection, schedule: Q04DX003 (ip), vehicle: saline with Tween-80.
Setting [3] is: endpoint: mean survival time, dose: 200.0 mg/kg/injection, schedule: Q01DX009 (ip), vehicle: saline with Tween-80.
Setting [4] is: endpoint: mean survival time, dose: 200.0 mg/kg/injection, schedule: Q04DX003 (ip), vehicle: saline with Tween-80.
Where [5] appears, read: endpoint: mean survival time, dose: 400.0 mg/kg/injection, schedule: Q01DX009 (ip), vehicle: saline with Tween-80.
Where [6] appears, read: endpoint: mean survival time, dose: 400.0 mg/kg/injection, schedule: Q04DX003 (ip), vehicle: saline with Tween-80.
The mark [7] stands for this setting: endpoint: median survival time, dose: 50.0 mg/kg/injection, schedule: Q01DX005 (ip), vehicle: saline with Tween-80.
Setting [8] is: endpoint: mean survival time, dose: 100.0 mg/kg/injection, schedule: Q01DX001 (ip), vehicle: saline.
[9] abbreviates: endpoint: mean survival time, dose: 200.0 mg/kg/injection, schedule: Q01DX001 (ip), vehicle: saline.
Setting [10] is: endpoint: mean survival time, dose: 400.0 mg/kg/injection, schedule: Q01DX001 (ip), vehicle: saline.
Setting [11] is: endpoint: mean survival time, dose: 100.0 mg/kg/injection, schedule: Q01DX001 (ip), vehicle: saline with Tween-80.
The mark [12] stands for this setting: endpoint: mean survival time, dose: 400.0 mg/kg/injection, schedule: Q01DX001 (ip), vehicle: saline with Tween-80.

Consider `Nc1ccc2ccc(NS(=O)(=O)N3CCCCC3)cc2c1`, for which the T/C runs as follows: (endpoint: median survival time, dose: 25.0 mg/kg/injection, schedule: Q01DX009 (ip), vehicle: saline with Tween-80) 118 % of control and 101 % of control and 106 % of control; (endpoint: median survival time, dose: 50.0 mg/kg/injection, schedule: Q01DX009 (ip), vehicle: saline with Tween-80) 100 % of control and 109 % of control and 112 % of control; (endpoint: median survival time, dose: 100.0 mg/kg/injection, schedule: Q01DX009 (ip), vehicle: saline with Tween-80) 114 % of control and 118 % of control and 119 % of control; (endpoint: median survival time, dose: 400.0 mg/kg/injection, schedule: Q01DX009 (ip), vehicle: saline with Tween-80) 182 % of control.

With `O=C(O)c1cccnc1Cl`, the T/C is 111 % of control (endpoint: mean survival time, dose: 75.0 mg/kg/injection, schedule: Q01DX009 (ip), vehicle: Klucel (hydroxypropylcellulose) (HPC)) and 94 % of control (endpoint: mean survival time, dose: 150.0 mg/kg/injection, schedule: Q01DX009 (ip), vehicle: Klucel (hydroxypropylcellulose) (HPC)).

As to `O=[N+]([O-])c1ccc2ccccc2c1I`, the T/C is 92 % of control under setting [1]; 87 % of control under setting [2]; 98 % of control under setting [3]; 93 % of control under setting [4]; 90 % of control under setting [5]; 92 % of control under setting [6].

As to `Nc1nc(=O)n(CCCOc2ccccc2NC(=O)Nc2cccc(S(=O)(=O)F)c2)cc1-c1ccc(Cl)c(Cl)c1`, the T/C is, setting by setting: (endpoint: mean survival time, dose: 75.0 mg/kg/injection, schedule: Q01DX001 (ip), vehicle: saline with Tween-80) 95 % of control; (endpoint: mean survival time, dose: 150.0 mg/kg/injection, schedule: Q01DX001 (ip), vehicle: saline with Tween-80) 95 % of control; (endpoint: mean survival time, dose: 300.0 mg/kg/injection, schedule: Q01DX001 (ip), vehicle: saline with Tween-80) 101 % of control.

`O=c1[nH]cnc2n[nH]c(Br)c12`: the T/C is, setting by setting: under setting [7], 107 % of control; (endpoint: median survival time, dose: 100.0 mg/kg/injection, schedule: Q01DX005 (ip), vehicle: saline with Tween-80) 111 % of control; (endpoint: median survival time, dose: 200.0 mg/kg/injection, schedule: Q01DX005 (ip), vehicle: saline with Tween-80) 119 % of control.

Turning to `O=P(OCCCl)(OCCCl)C(Cl)Cl`, the T/C is 96 % of control under setting [8], 100 % of control under setting [9] and 97 % of control under setting [10].

Consider `O=C(c1ccccc1)c1c(-c2ccccc2)c(-c2ccccc2)c(-c2ccccc2)c(-c2ccccc2)c1-c1ccccc1`, for which the T/C under setting [2] is 89 % of control, the T/C under setting [4] was 90 % of control and the T/C under setting [6] is 90 % of control.

On to `Cc1ccc(NC(=O)Oc2ccc(F)cc2Cl)cc1NC(=O)Oc1ccc(F)cc1Cl`, for which the T/C was 103 % of control under setting [11]; 101 % of control (endpoint: mean survival time, dose: 200.0 mg/kg/injection, schedule: Q01DX001 (ip), vehicle: saline with Tween-80); 95 % of control under setting [12].

Take `N#CCCC1C(=O)CCCC1=O`: the T/C was 105 % of control under setting [2], 89 % of control under setting [4] and 97 % of control under setting [6].

As for `Brc1ccc([Si](c2ccccc2)(c2ccccc2)c2ccc(Br)cc2)cc1`, the T/C reads like this: under setting [2], 102 % of control; under setting [4], 108 % of control; under setting [6], 106 % of control.

Turning to `COc1ccc(NC(=O)c2ccccc2)c([N+](=O)[O-])c1`, the T/C was 105 % of control under setting [2], 97 % of control under setting [4] and 94 % of control under setting [6].

Turning to `CC1(O)C=CC(=O)C=C1`, the T/C runs as follows: (endpoint: median survival time, dose: 6.25 mg/kg/injection, schedule: Q01DX009 (ip), vehicle: water) 91 % of control; (endpoint: median survival time, dose: 12.5 mg/kg/injection, schedule: Q01DX009 (ip), vehicle: water) 103 % of control; (endpoint: median survival time, dose: 25.0 mg/kg/injection, schedule: Q01DX009 (ip), vehicle: water) 122 % of control; (endpoint: median survival time, dose: 50.0 mg/kg/injection, schedule: Q01DX009 (ip), vehicle: water) 91 % of control.

Regarding `c1ccc(C2=NNC(c3ccccn3)=NN2)nc1`, the T/C is 95 % of control under setting [1]; 97 % of control under setting [2]; 101 % of control under setting [3]; 92 % of control under setting [4]; 97 % of control under setting [5]; 101 % of control under setting [6].

On to `CCCCCCCCCCCCCCCCCCSc1ccc(Br)cc1`, for which the T/C is, setting by setting: under setting [11], 92 % of control; under setting [12], 86 % of control.

Consider `CCCCCC/C=N\N=C(N)N`, for which the T/C (endpoint: mean survival time, dose: 75.0 mg/kg/injection, schedule: Q01DX001 (ip), vehicle: saline) is 103 % of control.

For the molecule `Cc1cc2c(=O)[nH]cnc2[nH]1`, the T/C runs as follows: (endpoint: median survival time, dose: 12.5 mg/kg/injection, schedule: Q01DX005 (ip), vehicle: saline with Tween-80) 102 % of control; (endpoint: median survival time, dose: 25.0 mg/kg/injection, schedule: Q01DX005 (ip), vehicle: saline with Tween-80) 100 % of control; under setting [7], 101 % of control; (endpoint: median survival time, dose: 50.0 mg/kg/injection, schedule: Q01DX005 (ip), vehicle: saline) 102 % of control; (endpoint: median survival time, dose: 100.0 mg/kg/injection, schedule: Q01DX005 (ip), vehicle: saline) 90 % of control.

In the case of `O=c1cc(C(Cl)C2OC(CO)C(O)C2O)nc[nH]1` (stereo unspecified), the T/C is 100 % of control (endpoint: median survival time, dose: 18.13 mg/kg/injection, schedule: Q01DX005 (ip), vehicle: saline); 98 % of control (endpoint: median survival time, dose: 36.25 mg/kg/injection, schedule: Q01DX005 (ip), vehicle: saline); 101 % of control (endpoint: median survival time, dose: 72.5 mg/kg/injection, schedule: Q01DX005 (ip), vehicle: saline); 103 % of control (endpoint: median survival time, dose: 145.0 mg/kg/injection, schedule: Q01DX005 (ip), vehicle: saline).

With `O=c1nc(NCC2CCCO2)ccn1C1OC(CO)C(O)C1O` (stereo unspecified), the T/C is 101 % of control (endpoint: median survival time, dose: 12.5 mg/kg/injection, schedule: Q01DX005 (ip), vehicle: water); 101 % of control (endpoint: median survival time, dose: 25.0 mg/kg/injection, schedule: Q01DX005 (ip), vehicle: water); 101 % of control (endpoint: median survival time, dose: 50.0 mg/kg/injection, schedule: Q01DX005 (ip), vehicle: water); 97 % of control (endpoint: median survival time, dose: 100.0 mg/kg/injection, schedule: Q01DX005 (ip), vehicle: water); 98 % of control (endpoint: median survival time, dose: 200.0 mg/kg/injection, schedule: Q01DX005 (ip), vehicle: water).

`CCCN(CCC)S(=O)(=O)c1ccc(NC(=O)OC2CCCCC2)cc1`: the T/C runs as follows: under setting [8], 93 % of control; under setting [9], 98 % of control; under setting [10], 97 % of control.
